Data as given in ChEMBL document CHEMBL2073794, “Catecholamine transport by the organic cation transporter type 1 (OCT1)” (Br J Pharmacol, 1998).

The compounds below were run against T1, Solute carrier family 22 member 1 (Rattus norvegicus, UniProt Q63089) (assay: TP_TRANSPORTER: uptake in OCT1-expressing HEK293 cells). Details: human.
T1 sequence (Q63089 whole entry): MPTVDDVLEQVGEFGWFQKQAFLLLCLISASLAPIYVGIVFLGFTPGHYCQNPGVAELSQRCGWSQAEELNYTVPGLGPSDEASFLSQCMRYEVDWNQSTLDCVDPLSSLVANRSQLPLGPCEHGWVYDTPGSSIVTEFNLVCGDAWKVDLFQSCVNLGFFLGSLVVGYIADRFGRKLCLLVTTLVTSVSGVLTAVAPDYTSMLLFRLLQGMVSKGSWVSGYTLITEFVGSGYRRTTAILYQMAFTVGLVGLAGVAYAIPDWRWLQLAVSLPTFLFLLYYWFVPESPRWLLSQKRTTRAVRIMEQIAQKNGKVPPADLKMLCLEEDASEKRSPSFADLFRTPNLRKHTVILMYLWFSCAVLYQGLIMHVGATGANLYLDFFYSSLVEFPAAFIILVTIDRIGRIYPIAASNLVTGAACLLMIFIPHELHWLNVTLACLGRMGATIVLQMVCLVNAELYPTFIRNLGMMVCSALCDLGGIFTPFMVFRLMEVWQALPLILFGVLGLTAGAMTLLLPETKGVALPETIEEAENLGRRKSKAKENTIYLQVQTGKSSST
Format: functional, cell-based

Row | Activity | SMILES
1 | substrate [+] | NCCc1ccc(O)c(O)c1 [DOPAMINE]
2 | substrate [+] | CNC[C@H](O)c1ccc(O)c(O)c1 [EPINEPHRINE]
3 | substrate [+] | NC[C@H](O)c1ccc(O)c(O)c1 [NOREPINEPHRINE]
4 | substrate [+] | CC[N+](CC)(CC)CC [TETRYLAMMONIUM]

Row | SMILES | Activity
5 | NCCc1c[nH]c2ccc(O)cc12 [SEROTONIN] | substrate [+]
6 | NCCc1ccc(O)cc1 [TYRAMINE] | substrate [+]
